Experiments:
[1] = test system: SW480 (human colon carcinoma cell line); assay: MTT assay cytotoxicity, SW480; type: cell-based
Experimental: (§1) Oxaliplatin was included for comparison as a reference substance, and was tested under the same conditions.
(§2) The cells were harvested from the culture flasks during the exponential growth phase, counted and 5 × 10^3 cells/well were seeded into 96-well culture plates. About 24 h later, after the cell adherence, each well was treated with 100 μL of tested complexes, which had been serially diluted two-fold in medium to concentrations ranging from 300 to 2.3 μM. All cells were incubated at 37 °C in an atmosphere containing 5% CO2 and at absolute humidity for 24 and 72 h. After incubation, the culture medium was removed from each well and MTT solution (5 mg/mL in phosphate buffered saline (PBS)) was added to each well and cells were incubated 4 h under culture conditions. The cell-free supernatants were suctioned off, and dimethyl sulfoxide (DMSO) (150 μL) and glycine buffer (20 μL) were added to dissolve the formazan crystals. The plates were shaken for 10 min. The optical density of each well was determined at 595 nm using a multiplate reader (Zenyth 3100, Anthos Labtec Instruments GmbH, Salzburg, Austria). Experiments were performed in triplicates and repeated in three independent series. The percentage of cell viability was determined by comparison with untreated controls according to formula: % of viable cells = (E − B)/(S − B) × 100, where B is for the background of the medium alone, S is for the total viability/spontaneous death of untreated target cells, and E is for the experimental well. The IC50 values were determined by plotting the percentage viability versus concentration on a logarithmic graph and reading off the concentration at which 50% of cells remained viable relative to the control.

CT26 cells [2] = assay: Cell cycle analysis, CT26; type: cell-based, mouse; settings: CT26, IC50 doses, 24 h
Experimental: (§3) Both the apoptosis induction and/or cell cycle arrest may reduce the viability of carcinoma cells. Thus, we next investigated the impact of ruthenium(II) terpyridine complexes on possible cell cycle disturbances in colon carcinoma cells.
(§4) Cell cycle analysis was performed with a Vybrant® DyeCycle™ Ruby stain (Thermo Fisher Scientific, Waltham, MA, USA) according to the manufacturer’s instructions. CT26, HCT116, and SW480 cells stained with Vybrant DyeCycle Ruby were analyzed by a Fluorescence-activated cell sorting (FACS) Calibur flow Cytometer (BD Biosciences, San Jose, CA, USA). The cell cycle distribution was analyzed using FlowJo software and the results were presented as histograms.

[3] = test system: HCT116 (human colon carcinoma cell line); assay: MTT assay cytotoxicity, HCT116; type: cell-based
Experimental: as §1, §2

CT26 cells [4] = assay: Annexin V-FITC/PI double staining, flow cytometry, CT26; type: cell-based, mouse; settings: CT26, IC50 concentrations, 24 h
Experimental: (§5) For the detection of apoptosis, the Annexin V binding capacity of treated cells was examined by flow cytometry using an Annexin V-fluorescein isothiocyanate (FITC) Detection Kit (BD Pharmingen, San Jose, CA, USA) according to the manufacturer’s protocol. […] Following the incubation, all cells were trypsinized, washed in PBS, centrifuged, and resuspended in 100 μL of ice-cold binding buffer (10× binding buffer: 0.1 M Hepes/NaOH (pH 7.4), 1.4 M NaCl, 25 mM CaCl2) at a concentration of 1 × 10^6/mL. Annexin V-FITC and propidium iodide (PI) were added to the 100 μL of cell suspension and incubated for 15 min at room temperature (25 °C) in the dark. After incubation, 400 μL of 1× binding buffer was added to each tube and stained cells were analyzed within 1 h using a flow cytometer FACS Calibur (BD Biosciences, San Jose, CA, USA). Data were analyzed using FlowJo Software version VX [45]. Measurements were presented as density plots of Annexin V-FITC and PI stainings.

[5] = Systemic toxicity in CT26 tumor-bearing mice (body and organ weight, serum biochemistry, histopathology); settings: 2 mg/kg i.p.
Experimental: Finally, in order to examine the safety of ruthenium(II) terpyridine complexes in vivo, the mice’s body weight was measured before tumor cell inoculation and at the end of experiment. The toxicity associated with ruthenium(II) terpyridine complexes treatment was assessed at biochemical and histopathological levels. The serum concentrations of the biochemical markers ALT, AST, urea, and creatinine were obtained to evaluate the liver and renal functions. In addition, the histopathological changes in the target organs, liver, heart, lungs, and kidneys were evaluated.
BALB/c mice bearing syngeneic CT26 mouse colon carcinoma were selected as the test system, as this experimental model has been extensively used for this kind of research in the literature [47]. For heterotopic colon carcinoma model, 1 × 10^6 CT26 cells suspended in 100 μL of DMEM were injected subcutaneously into the left flank of mice. Tumor-bearing mice were examined every 3 days for tumor development and progression and monitoring body weight. Animals were randomized into 4 groups with 6 tumor-bearing mice that were ear-tagged and followed-up individually throughout the study. The intraperitoneal administration of complexes or saline began on sixth day after post-tumor inoculation. Each drug was administered at doses of 2 mg/kg dissolved in 200 μL saline, twice weekly for four times in total (Scheme 2).
To study the potential side effects of ruthenium(II) terpyridine complexes, treated mice were monitored for weight loss. […] Blood samples were collected from abdominal aorta of each mouse in tubes without anticoagulant, and a separated serum was processed and analyzed by the chemistry analyzer Roche Cobas Mira Plus. The levels of serum urea, creatinine, and liver enzymes—aspartate aminotransferase (AST) and alanine aminotransferase (ALT)—were determined to assess the renal and hepatic function. After sacrificed, organ weights of the heart, liver, lungs, and kidneys, as well as the tumors, were determined for each animal, and the relative organ weight was calculated as % body weight. The tissue sections of various organs (heart, liver, lungs, and kidneys) and tumor were isolated for histopathological analysis. The tissues fixed in 4% paraformaldehyde were embedded in paraffin, cut into thin sections and mounted on glass slides. The tissue sections were stained with hematoxylin and eosin for microscopic examination.

HCT116 cells [6] = assay: Annexin V-FITC/PI double staining, flow cytometry, HCT116; type: cell-based, human; settings: HCT116, IC50 concentrations, 24 h
Experimental: as §5

SW480 cells = assay: LDH release assay, SW480; type: cell-based, human; settings: SW480, 300 μM, 24 h
Experimental: (§6) The cytotoxicity of used complexes was examined by an In Vitro Toxicology Assay Kit, Lactic Dehydrogenase based (Sigma-Aldrich, St. Lous, MO, USA). Cells were prepared and treated with complexes in the same manner as for the MTT assay. Additional wells were prepared as high control cells were treated with 1/10 volume of LDH Assay Lysis Solution for 45 min. Cells exposed to medium were used as low controls. After treatment, supernatant (50 μL) was transferred to new plate and incubated with an equivalent volume of Lactate Dehydrogenase Assay Mixture (which was prepared by mixing equal volumes of LDH Assay Substrate Solution, LDH Assay Dye Solution, and 1’ LDH Assay Cofactor Preparation. After incubating the plates in the dark for 30 min at room temperature, reaction was terminated by the addition of 10 μL of 1 N HCl to each well and data were acquired by spectrophotometry at 490 nm. The percentage of dead cells was calculated using the formula [44]:% of dead cells = (exp. value − low control)/(high control − low control) × 100.

[7] = test system: syngeneic CT26 mouse colon carcinoma; assay: Heterotopic CT26 colon carcinoma growth in mice; type: in vivo, BALB/c mice; settings: 2 mg/kg i.p.; for tumor weights after necropsy versus vehicle-treated mice: four times in total; for tumor growth inhibition (TGI): four times in total from day six, last day of the experiment; for necrosis fields in primary tumor, histology: hematoxylin and eosin
Experimental: In view of the proven cytotoxic effects of ruthenium(II) terpyridine complexes in vitro, the next goal of the present study was to examine the ability of tested compounds to inhibit murine colon cancer growth and progression in vivo. CT26 cells were heterotopically implanted into the shaved flank of the mice.
Male BALB/c mice of 6–8 weeks of age were used in all experiments. Mice were housed in a temperature-controlled environment (22–24 °C) with a 12 h light–dark cycle and were given standard laboratory food and water ad libitum. […] All experiments were approved (01-8461/2) by, and conducted in accord with, the Guidelines of the Animal Ethics Committee of the Faculty of Medical Sciences of the University of Kragujevac (Kragujevac, Serbia).
The size of primary CT26 colon tumors were assessed morphometrically using electronic calipers in two dimensions. The tumor volume was calculated as follows: tumor volume (mm^3) = (L × W^2)/2, where L is the longest and W the shortest […] of the tumor in millimeters. Results were expressed as means of tumor volumes ± SD. The percent tumor growth inhibition (TGI) was determined according to the formula, TGI(%) = (Vc − Vt)/(Vc − Vo) × 100, where Vc − Vt are the median of control and treated groups at the end of the study and Vo at the start.

HCT116 cells [8] = assay: LDH release assay, HCT116; type: cell-based, human; settings: HCT116, 300 μM, 24 h
Experimental: as §6

[9] = test system: CT26 (mouse colon carcinoma cell line); assay: MTT assay cytotoxicity, CT26; type: cell-based
Experimental: as §1, §2

[10] = set-up: method as in PMID 26855406; settings: cited from earlier work
[11] = Interaction with glutathione by 1H NMR in D2O; settings: 10 mM in D2O, GSH added to equilibrated solution
Experimental: (§7) These new resonances, which grew at the expense of those of the parent compound, were attributed to the aqua species [Ru(Cl-tpy)(en)(OH2)]^2+ (1aq) and [Ru(Cl-tpy)(dach)(OH2)]^2+ (2aq), respectively (Scheme 1).
The addition of GSH to an equilibrated solution of Ru-1 (10 mM) in D2O induced very slow changes in the ^1H NMR spectrum (Figure 2). A new set of resonances, attributable to the thiolate adduct [Ru(Cl-tpy)(en)(GS-S)] (3), became apparent in the ^1H NMR spectrum after 6 h. […] (4).
(§8) The compounds [Ru(Cl-tpy)(en)Cl][Cl] […] All other chemicals were used as purchased without further purification. NMR spectra were recorded on a Varian Gemini 200 MHz spectrometer. All chemical shifts were referenced to TSP (trimethylsilylpropionic acid) at d = 0.00. All NMR spectra were run at 295 K.

[12] = test system: HeLa, A549 and MRC-5 cells; set-up: method as in PMID 26855406, PMID 28088012; settings: previously conducted study; read-out: IC50, range over HeLa, A549 and MRC-5; cited from earlier work
[13] = Behaviour in aqueous solution by 1H NMR in D2O; type: physicochemical; settings: ambient temperature, forms aqua species
Experimental: as §7, §8

HCT116 cells [14] = assay: Cell cycle analysis, HCT116; type: cell-based, human; settings: HCT116, IC50 doses, 24 h
Experimental: as §3, §4

CT26 cells [15] = assay: LDH release assay, CT26; type: cell-based, mouse; settings: CT26, 300 μM, 24 h
Experimental: as §6

| SMILES | IC50 ([1]; 24 h exposure) [µM] | IC50 ([1]; 72 h exposure) [µM] | cell cycle disturbance (CT26 cells [2]) | IC50 ([3]; 24 h exposure) [µM] | IC50 ([3]; 72 h exposure) [µM] | serum concentration of creatinine ([5]; tumor-bearing mice) | serum level of ALT ([5]; tumor-bearing mice) | serum level of AST compared to the control group ([5]; tumor-bearing mice) | late apoptosis in HCT116 cells, in words (HCT116 cells [6]) | LDH levels (LDH release, % of dead cells) (SW480 cells) [%] | tumor weights after necropsy versus vehicle-treated mice [7] | tumor growth inhibition (TGI) [7] [%] | necrosis fields in primary tumor, histology [7] | LDH levels (LDH release, % of dead cells) (HCT116 cells [8]) [%] | IC50 ([9]; 24 h exposure) [µM] | IC50 ([9]; 72 h exposure) [µM] | IC50 [12] [µM] | lability of the chloride ligand in aqueous solution [13] | other results |
| --- | --- | --- | --- | --- | --- | --- | --- | --- | --- | --- | --- | --- | --- | --- | --- | --- | --- | --- | --- |
| O=C1[O][Pt]2([NH][C@@H]3CCCC[C@H]3[NH]2)[O]C1=O [Oxaliplatin, oxaliplatin, reference compound] | 100 ± 9 | 1.3 | G2/M phase arrest | 9.7 ± 8 | 0.1 | did not affect | no difference | no difference | induced late apoptosis | 2.20 | markedly lower | 51.39 | no greater than the necrosis field in untreated mice tumors | 0 | 54.5 ± 4 | 25.2 ± 2 | – | – | apoptotic death of CT26 tumor cells, in words (CT26 cells [4]): moderately induced apoptotic death |
| Clc1cc(-c2ccccn2)nc(-c2ccccn2)c1.NCCN.[Cl-].[Cl-].[Ru+2] [Ru-1, [Ru(Cl-tpy)(en)Cl][Cl]] | 50.4 ± 4 | 44.7 ± 4 | G2/M phase arrest | 31.8 ± 2 | 19.1 ± 1 | did not affect | – | – | induced late apoptosis | – | markedly lower | 53.41 | The largest part of the primary tumor of Ru-1-treated mice was necrotic | 8.37 | 43.3 ± 3 | 50.9 ± 4 | 32.8 to 66.3 | very labile | log Po/w [10]: −1.33; time after which thiolate adduct with GSH became apparent in 1H NMR [11]: 6 h; histological changes in kidney tissue [5]: hyaline cylinders and focal hyaline glomerular change; serum concentration of urea compared to saline-treated mice ([5]; tumor-bearing mice): did not affect; histological changes in heart tissue ([5]; in comparison with oxaliplatin and saline-treated mice): No significant histological changes; cell cycle disturbance (HCT116 cells [14]): G2/M phase arrest; LDH levels (LDH release, % of dead cells) (CT26 cells [15]): 36.43% |
| Clc1cc(-c2ccccn2)nc(-c2ccccn2)c1.NC1CCCCC1N.[Cl-].[Cl-].[Ru+2] [Ru-2, [Ru(Cl-tpy)(dach)Cl][Cl]] | 156 ± 12 | 86.4 ± 7 | – | 50.4 ± 5 | 20.4 ± 1 | – | no difference | no difference | – | 33.07 | slightly smaller than tumors from the control group, but without statistical significance | 17.56 | larger compared to necrosis fields in the tumors of untreated mice and oxaliplatin-treated mice | 2.35 | 167 ± 12 | 148 ± 11 | 72.8 to 111 | very labile | serum urea concentration, excess compared to all other groups ([5]; tumor-bearing mice): ~ 3 units |

From PMC7587369, “Antitumor Activity of Ruthenium(II) Terpyridine Complexes towards Colon Cancer Cells In Vitro and In Vivo” (Molecules, 2020)
